{"source": "patent US10815204B2", "about": "“Process for the preparation of diphenylpyrazine derivatives” (HONOUR (R&D), priority 2016, dated 2020)", "assay_type_in_all_cases": "physicochemical", "key": {"[1]": {"assay": "Stability of Selexipag amorphous form on storage, Chromatographic Purity (by HPLC)", "experimental": "(§1) In another aspect of the present invention, Selexipag amorphous form is stable at 5±3° C. and 25±2° C./RH (Relative humidity) 60±5%, 40±2° C./RH (Relative humidity) 75±5% and has the following stability data: […]"}, "[2]": {"assay": "Stability of Selexipag amorphous form on storage, solid form by PXRD", "experimental": "X-ray powder diffraction spectrum was measured on a bruker axs D8 advance X-ray powder diffractometer having a copper-a radiation. Adequate sample was gently flattered on a sample holder and scanned from 2 to 50 degrees two-theta, at 0.02 increment and scan speed of 0.2 Sec/Step. The sample was simply placed on the sample holder. The sample was rotated at 30 rpm at a voltage 40 KV and current 35 mA. In another aspect of the present invention, Selexipag amorphous form is stable at 5±3° C. and 25±2° C./RH (Relative humidity) 60±5%, 40±2° C./RH (Relative humidity) 75±5% and has the following stability data: […]"}, "[3]": {"assay": "Storage stability of Selexipag amorphous form (statement)", "settings": "at 5±3° C. and 25±2° C./RH 60±5%, 40±2° C./RH 75±5%", "experimental": "as §1"}, "[4]": {"settings": "25 ± 2° C./RH 60 ± 5%, 1st month"}, "[5]": {"settings": "25 ± 2° C./RH 60 ± 5%, 2nd Month"}, "[6]": {"settings": "25 ± 2° C./RH 60 ± 5%, 3rd Month"}, "[7]": {"settings": "25 ± 2° C./RH 60 ± 5%, 4th Month"}, "[8]": {"settings": "25 ± 2° C./RH 60 ± 5%, 5th Month"}, "[9]": {"settings": "40 ± 2° C./RH 75 ± 5%, 1st month"}, "[10]": {"settings": "40 ± 2° C./RH 75 ± 5%, 2nd Month"}, "[11]": {"settings": "40 ± 2° C./RH 75 ± 5%, 3rd Month"}}}
{"smiles": "CC(C)N(CCCCOCC(=O)NS(C)(=O)=O)c1cnc(-c2ccccc2)c(-c2ccccc2)n1", "note": "[Selexipag amorphous form, 2-{4-[(5,6-diphenylpyrazin-2-yl)(isopropyl)amino]butoxy}-N-(methylsulfonyl)acetamide]", "values": [{"measurement": "Chromatographic Purity (by HPLC)", "setting": "[1]; 5 ± 3° C., 1st month", "result": 99.63}, {"measurement": "Chromatographic Purity (by HPLC)", "setting": "[1]; 5 ± 3° C., 2nd Month", "result": 99.66}, {"measurement": "Chromatographic Purity (by HPLC)", "setting": "[1]; 5 ± 3° C., 3rd Month", "result": 99.76}, {"measurement": "Chromatographic Purity (by HPLC)", "setting": "[1]; 5 ± 3° C., 4th Month", "result": 99.76}, {"measurement": "Chromatographic Purity (by HPLC)", "setting": "[1]; 5 ± 3° C., 5th Month", "result": 99.70}, {"measurement": "Chromatographic Purity (by HPLC)", "setting": "[1]; 5 ± 3° C., 6th Month", "result": 99.76}, {"measurement": "Chromatographic Purity (by HPLC)", "setting": "[1]; 5 ± 3° C., Initial", "result": 99.63}, {"measurement": "Chromatographic Purity (by HPLC)", "setting": "[1]; [4]", "result": 99.63}, {"measurement": "Chromatographic Purity (by HPLC)", "setting": "[1]; [5]", "result": 99.59}, {"measurement": "Chromatographic Purity (by HPLC)", "setting": "[1]; [6]", "result": 99.72}, {"measurement": "Chromatographic Purity (by HPLC)", "setting": "[1]; [7]", "result": 99.78}, {"measurement": "Chromatographic Purity (by HPLC)", "setting": "[1]; [8]", "result": 99.69}, {"measurement": "Chromatographic Purity (by HPLC)", "setting": "[1]; 25 ± 2° C./RH 60 ± 5%, 6th Month", "result": 99.68}, {"measurement": "Chromatographic Purity (by HPLC)", "setting": "[1]; 25 ± 2° C./RH 60 ± 5%, Initial", "result": 99.63}, {"measurement": "Chromatographic Purity (by HPLC)", "setting": "[1]; [9]", "result": 99.62}, {"measurement": "Chromatographic Purity (by HPLC)", "setting": "[1]; [10]", "result": 99.58}, {"measurement": "Chromatographic Purity (by HPLC)", "setting": "[1]; [11]", "result": 99.66}, {"measurement": "Chromatographic Purity (by HPLC)", "setting": "[1]; 40 ± 2° C./RH 75 ± 5%, 4th Month", "result": 99.69}, {"measurement": "Chromatographic Purity (by HPLC)", "setting": "[1]; 40 ± 2° C./RH 75 ± 5%, 5th Month", "result": 99.66}, {"measurement": "Chromatographic Purity (by HPLC)", "setting": "[1]; 40 ± 2° C./RH 75 ± 5%, 6th Month", "result": 99.65}, {"measurement": "Chromatographic Purity (by HPLC)", "setting": "[1]; 40 ± 2° C./RH 75 ± 5%, Initial", "result": 99.63}, {"measurement": "PXRD", "setting": "[2]; 5 ± 3° C., 1st month", "result": "Amorphous"}, {"measurement": "PXRD", "setting": "[2]; 5 ± 3° C., 2nd Month", "result": "Amorphous"}, {"measurement": "PXRD", "setting": "[2]; 5 ± 3° C., 3rd Month", "result": "Amorphous"}, {"measurement": "PXRD", "setting": "[2]; 5 ± 3° C., 4th Month", "result": "Amorphous"}, {"measurement": "PXRD", "setting": "[2]; 5 ± 3° C., 5th Month", "result": "Amorphous"}, {"measurement": "PXRD", "setting": "[2]; 5 ± 3° C., 6th Month", "result": "Amorphous"}, {"measurement": "PXRD", "setting": "[2]; 5 ± 3° C., Initial", "result": "Amorphous"}, {"measurement": "PXRD", "setting": "[2]; [4]", "result": "Amorphous"}, {"measurement": "PXRD", "setting": "[2]; [5]", "result": "Amorphous"}, {"measurement": "PXRD", "setting": "[2]; [6]", "result": "Amorphous"}, {"measurement": "PXRD", "setting": "[2]; [7]", "result": "Amorphous"}, {"measurement": "PXRD", "setting": "[2]; [8]", "result": "Amorphous"}, {"measurement": "PXRD", "setting": "[2]; 25 ± 2° C./RH 60 ± 5%, Initial", "result": "Amorphous"}, {"measurement": "PXRD", "setting": "[2]; [9]", "result": "Amorphous"}, {"measurement": "PXRD", "setting": "[2]; [10]", "result": "Amorphous"}, {"measurement": "PXRD", "setting": "[2]; [11]", "result": "Amorphous"}, {"measurement": "PXRD", "setting": "[2]; 40 ± 2° C./RH 75 ± 5%, Initial", "result": "Amorphous"}, {"measurement": "stability on storage", "setting": "[3]", "result": "stable"}]}
